US20210255193A1, “LYSINE REACTIVE PROBES AND USES THEREOF” (The Scripps Research Institute, priority 2017, published 2021)
One block for each compound: values may come before it.

Experiments:
Assay in all cases: competitive isoTOP-ABPP
Format in all cases: binding
[1] = target: T1, NPEPPS Puromycin-sensitive aminopeptidase (Homo sapiens, UniProt P55786); details: 50 uM, in vitro; for R value (DMSO/fragment) for probe 1 labeling: P55786_K712; for R value (DMSO/fragment) for probe 1 labeling / isoTOP-ABPP reactivity ratio at lysine P55786_K712: 231 sol; for isoTOP-ABPP ratio (R) at liganded lysine P55786_K712: sol, 231
T1 construct: isoTOP-ABPP experiments performed in cell lysates (in vitro); endogenous in cells; host or cells: soluble proteome of human cancer cell lines (MDA-MB-231, Ramos, Jurkat)
Summary of the method: (§1)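 Cell lysate treated in vitro with fragments (50 μM activated esters, 100 μM guanidinylating agents) or DMSO, labelled 1 h at ambient temperature with 0.1 mM STP-alkyne, CuAAC-tagged with light/heavy TEV tags, analysed by MS. R = DMSO/compound MS1 peak-area ratio; lysines with R≥4 called liganded.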

[2] = target: T2, FECH Ferrochelatase, mitochondrial (Homo sapiens, UniProt P22830); details: 50 uM, in vitro; for R value (DMSO/fragment) for probe 1 labeling: P22830_K304; for R value (DMSO/fragment) for probe 1 labeling / isoTOP-ABPP reactivity ratio at lysine P22830_K304: 231 sol
T2 construct: isoTOP-ABPP experiments performed in cell lysates (in vitro); endogenous in cells; host or cells: soluble proteome of human cancer cell lines (MDA-MB-231; Ramos and Jurkat also prepared)
T2 sequence (P22830 55-423): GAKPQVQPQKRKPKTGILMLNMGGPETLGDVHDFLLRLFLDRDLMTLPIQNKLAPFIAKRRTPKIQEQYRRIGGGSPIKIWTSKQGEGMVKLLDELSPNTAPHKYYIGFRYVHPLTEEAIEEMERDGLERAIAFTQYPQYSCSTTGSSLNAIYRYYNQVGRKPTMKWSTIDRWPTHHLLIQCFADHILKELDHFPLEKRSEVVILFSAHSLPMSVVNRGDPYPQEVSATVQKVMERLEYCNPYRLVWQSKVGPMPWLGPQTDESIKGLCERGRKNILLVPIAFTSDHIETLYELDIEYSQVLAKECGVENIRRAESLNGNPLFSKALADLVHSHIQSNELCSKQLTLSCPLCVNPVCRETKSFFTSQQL
Summary of the method: as §1

[3] = target: T3, HNRNPK Heterogeneous nuclear ribonucleoprotein K (Homo sapiens, UniProt P61978); details: 50 uM, in vitro; for R value (DMSO/fragment) for probe 1 labeling: P61978_K405; for R value (DMSO/fragment) for probe 1 labeling / isoTOP-ABPP reactivity ratio at lysine P61978_K405: 231 sol; for isoTOP-ABPP ratio (R) at liganded lysine P61978_K405: sol, 231
T3 construct: isoTOP-ABPP experiments performed in cell lysates (in vitro); endogenous in cells; host or cells: soluble proteome of human cancer cell lines (MDA-MB-231, Ramos, Jurkat)
Summary of the method: as §1

[4] = target: T4, KIAA1967 DBIRD complex subunit KIAA1967 (Homo sapiens, UniProt Q8N163); details: 50 uM, in vitro; for R value (DMSO/fragment) for probe 1 labeling / isoTOP-ABPP reactivity ratio at lysine Q8N163_K97 / isoTOP-ABPP reactivity ratio at lysine Q8N163_K112: 231 sol
T4 construct: isoTOP-ABPP experiments performed in cell lysates (in vitro); endogenous in cells; host or cells: soluble proteome of human cancer cell lines (MDA-MB-231; Ramos and Jurkat also prepared)
Summary of the method: as §1

[5] = target: T5, GOLGB1 Golgin subfamily B member 1 (Homo sapiens, UniProt Q14789); details: 50 uM, in vitro; for R value (DMSO/fragment) for probe 1 labeling: Q14789_K103; for R value (DMSO/fragment) for probe 1 labeling / isoTOP-ABPP reactivity ratio at lysine Q14789_K103: 231 sol; for isoTOP-ABPP ratio (R) at liganded lysine Q14789_K103: sol, 231
T5 construct: isoTOP-ABPP experiments performed in cell lysates (in vitro); endogenous in cells; host or cells: soluble proteome of human cancer cell lines (MDA-MB-231, Ramos, Jurkat)
Summary of the method: as §1

[6] = target: T6, RINT1 RAD50-interacting protein 1 (Homo sapiens, UniProt Q6NUQ1); details: 50 uM, in vitro; for R value (DMSO/fragment) for probe 1 labeling: Q6NUQ1_K771; for R value (DMSO/fragment) for probe 1 labeling / isoTOP-ABPP reactivity ratio at lysine Q6NUQ1_K771: 231 sol; for isoTOP-ABPP ratio (R) at liganded lysine Q6NUQ1_K771: sol, 231
T6 construct: isoTOP-ABPP experiments performed in cell lysates (in vitro); endogenous in cells; host or cells: soluble proteome of human cancer cell lines (MDA-MB-231; Ramos and Jurkat also prepared)
Summary of the method: as §1

CUL2 Cullin-2 = target: T7, CUL2 Cullin-2 (Homo sapiens, UniProt Q13617); details: 50 uM, in vitro; for R value (DMSO/fragment) for probe 1 labeling: Q13617_K489; for R value (DMSO/fragment) for probe 1 labeling / isoTOP-ABPP reactivity ratio at lysine Q13617_K489: 231 sol; for isoTOP-ABPP ratio (R) at liganded lysine Q13617_K489: sol, 231
T7 construct: isoTOP-ABPP experiments performed in cell lysates (in vitro); endogenous in cells; host or cells: soluble proteome of human cancer cell lines (MDA-MB-231, Ramos, Jurkat)
Summary of the method: as §1

T7 sequence (Q13617 whole entry, the tested form may be a part): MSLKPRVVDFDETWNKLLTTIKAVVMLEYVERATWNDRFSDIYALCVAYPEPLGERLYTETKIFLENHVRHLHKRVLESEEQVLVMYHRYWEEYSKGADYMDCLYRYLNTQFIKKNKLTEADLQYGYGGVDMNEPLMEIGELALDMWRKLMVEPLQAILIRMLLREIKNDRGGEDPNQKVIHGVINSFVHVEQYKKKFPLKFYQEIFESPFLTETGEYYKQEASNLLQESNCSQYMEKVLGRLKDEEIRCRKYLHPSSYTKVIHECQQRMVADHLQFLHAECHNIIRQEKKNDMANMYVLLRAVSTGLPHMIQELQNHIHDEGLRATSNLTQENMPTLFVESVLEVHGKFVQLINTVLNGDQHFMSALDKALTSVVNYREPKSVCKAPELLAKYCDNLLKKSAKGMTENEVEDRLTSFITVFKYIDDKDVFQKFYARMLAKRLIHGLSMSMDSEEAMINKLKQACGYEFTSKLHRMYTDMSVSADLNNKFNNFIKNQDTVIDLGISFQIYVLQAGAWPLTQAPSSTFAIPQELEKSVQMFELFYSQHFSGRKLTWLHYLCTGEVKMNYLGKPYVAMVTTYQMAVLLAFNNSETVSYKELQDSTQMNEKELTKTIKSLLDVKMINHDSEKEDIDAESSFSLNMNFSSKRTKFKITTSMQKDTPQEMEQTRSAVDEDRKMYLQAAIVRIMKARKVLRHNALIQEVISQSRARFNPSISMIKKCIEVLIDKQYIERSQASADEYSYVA
T1 sequence (P55786 whole entry, the tested form may be a part): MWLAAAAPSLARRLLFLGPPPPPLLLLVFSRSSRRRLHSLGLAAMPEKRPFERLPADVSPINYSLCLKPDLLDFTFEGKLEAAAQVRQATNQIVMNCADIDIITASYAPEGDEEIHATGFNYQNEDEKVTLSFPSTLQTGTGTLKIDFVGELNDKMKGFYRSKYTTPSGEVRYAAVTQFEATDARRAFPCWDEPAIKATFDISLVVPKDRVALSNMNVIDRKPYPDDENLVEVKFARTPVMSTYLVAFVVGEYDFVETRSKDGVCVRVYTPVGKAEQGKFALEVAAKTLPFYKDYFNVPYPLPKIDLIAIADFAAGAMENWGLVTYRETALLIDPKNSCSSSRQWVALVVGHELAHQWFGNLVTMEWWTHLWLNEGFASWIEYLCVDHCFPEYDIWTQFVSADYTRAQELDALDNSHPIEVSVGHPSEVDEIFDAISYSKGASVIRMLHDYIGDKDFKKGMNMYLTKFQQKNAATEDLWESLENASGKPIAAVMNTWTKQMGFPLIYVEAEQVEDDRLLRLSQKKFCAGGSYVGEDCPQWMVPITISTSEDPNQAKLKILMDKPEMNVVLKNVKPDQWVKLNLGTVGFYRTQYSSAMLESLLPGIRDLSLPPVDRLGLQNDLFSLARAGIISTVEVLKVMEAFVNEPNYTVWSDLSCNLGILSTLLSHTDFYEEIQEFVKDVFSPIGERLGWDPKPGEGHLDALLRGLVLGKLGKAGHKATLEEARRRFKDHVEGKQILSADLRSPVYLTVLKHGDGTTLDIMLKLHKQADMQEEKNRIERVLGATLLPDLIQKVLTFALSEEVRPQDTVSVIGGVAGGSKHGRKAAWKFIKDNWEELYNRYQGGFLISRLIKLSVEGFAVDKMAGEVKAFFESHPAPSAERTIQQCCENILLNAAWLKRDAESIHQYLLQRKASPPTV
T6 sequence (Q6NUQ1 whole entry, the tested form may be a part): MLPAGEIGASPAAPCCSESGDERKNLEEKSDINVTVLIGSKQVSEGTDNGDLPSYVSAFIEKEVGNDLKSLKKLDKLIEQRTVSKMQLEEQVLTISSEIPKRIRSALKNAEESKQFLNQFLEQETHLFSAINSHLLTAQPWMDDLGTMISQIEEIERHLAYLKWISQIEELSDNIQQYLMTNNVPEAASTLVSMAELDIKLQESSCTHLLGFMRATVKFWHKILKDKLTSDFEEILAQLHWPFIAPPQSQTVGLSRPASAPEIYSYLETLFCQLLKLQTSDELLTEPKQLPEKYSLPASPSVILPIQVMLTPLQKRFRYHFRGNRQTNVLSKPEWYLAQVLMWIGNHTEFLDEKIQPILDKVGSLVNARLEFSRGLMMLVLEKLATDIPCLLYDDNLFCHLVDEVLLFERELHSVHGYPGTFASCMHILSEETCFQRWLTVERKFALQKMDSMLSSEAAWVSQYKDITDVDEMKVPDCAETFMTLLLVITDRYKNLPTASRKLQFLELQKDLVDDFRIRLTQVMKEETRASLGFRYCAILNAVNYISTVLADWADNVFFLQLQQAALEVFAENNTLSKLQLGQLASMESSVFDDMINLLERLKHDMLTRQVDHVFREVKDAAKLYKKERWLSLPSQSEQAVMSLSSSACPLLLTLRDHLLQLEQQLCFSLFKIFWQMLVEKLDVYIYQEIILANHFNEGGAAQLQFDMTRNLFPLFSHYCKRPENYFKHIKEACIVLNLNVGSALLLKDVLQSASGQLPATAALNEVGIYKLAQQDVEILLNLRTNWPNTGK
T4 sequence (Q8N163 whole entry, the tested form may be a part, one chain of several): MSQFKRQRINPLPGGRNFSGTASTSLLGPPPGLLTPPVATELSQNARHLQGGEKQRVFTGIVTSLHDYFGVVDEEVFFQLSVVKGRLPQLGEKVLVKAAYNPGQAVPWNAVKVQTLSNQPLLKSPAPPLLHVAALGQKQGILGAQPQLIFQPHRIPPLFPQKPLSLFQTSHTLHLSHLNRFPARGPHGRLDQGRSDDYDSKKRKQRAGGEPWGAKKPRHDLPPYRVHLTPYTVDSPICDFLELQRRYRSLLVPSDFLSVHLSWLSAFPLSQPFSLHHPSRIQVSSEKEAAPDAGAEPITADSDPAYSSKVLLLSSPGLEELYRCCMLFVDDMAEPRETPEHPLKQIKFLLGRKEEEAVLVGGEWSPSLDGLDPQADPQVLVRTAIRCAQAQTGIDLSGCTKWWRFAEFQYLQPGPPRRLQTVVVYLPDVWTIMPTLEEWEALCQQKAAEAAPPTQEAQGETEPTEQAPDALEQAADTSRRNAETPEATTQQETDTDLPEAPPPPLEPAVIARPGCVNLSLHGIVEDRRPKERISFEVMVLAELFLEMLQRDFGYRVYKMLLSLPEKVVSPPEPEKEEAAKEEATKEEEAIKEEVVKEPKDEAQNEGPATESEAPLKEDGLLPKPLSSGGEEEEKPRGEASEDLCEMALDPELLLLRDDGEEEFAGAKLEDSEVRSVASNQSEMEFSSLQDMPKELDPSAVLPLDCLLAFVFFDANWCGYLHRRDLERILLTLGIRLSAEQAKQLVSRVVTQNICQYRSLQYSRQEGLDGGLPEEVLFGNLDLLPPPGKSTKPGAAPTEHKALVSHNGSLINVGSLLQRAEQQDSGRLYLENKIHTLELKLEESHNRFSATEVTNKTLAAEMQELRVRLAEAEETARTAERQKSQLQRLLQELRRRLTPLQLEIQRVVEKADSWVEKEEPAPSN

Compound: O=C(Oc1c(F)c(F)c(F)c(F)c1F)C(c1ccccc1)c1ccccc1 [fragment 20, Pentafluorophenyl 2,2-diphenylacetate]
R value (DMSO/fragment) for probe 1 labeling [1]: 0.9
R value (DMSO/fragment) for probe 1 labeling [2]: 1.7
R value (DMSO/fragment) for probe 1 labeling [3]: 1.0
R value (DMSO/fragment) for probe 1 labeling ([4]; Q8N163_K97): 0.9
R value (DMSO/fragment) for probe 1 labeling ([4]; Q8N163_K112): 1.0
R value (DMSO/fragment) for probe 1 labeling [5]: 1.0
R value (DMSO/fragment) for probe 1 labeling [6]: 1.0
R value (DMSO/fragment) for probe 1 labeling (CUL2 Cullin-2): 0.8

Compound: O=C(Oc1c(F)c(F)c(F)c(F)c1F)c1cc(C(F)(F)F)cc(C(F)(F)F)c1 [fragment 21, Pentafluorophenyl 3,5-bis(trifluoromethyl)benzoate]
R value (DMSO/fragment) for probe 1 labeling [1]: 0.9
R value (DMSO/fragment) for probe 1 labeling [2]: 1.0
R value (DMSO/fragment) for probe 1 labeling [3]: 1.0
R value (DMSO/fragment) for probe 1 labeling ([4]; Q8N163_K97): 0.7
R value (DMSO/fragment) for probe 1 labeling ([4]; Q8N163_K112): 1.0
R value (DMSO/fragment) for probe 1 labeling [5]: 1.0
R value (DMSO/fragment) for probe 1 labeling [6]: 2.2
R value (DMSO/fragment) for probe 1 labeling (CUL2 Cullin-2): 0.9

Compound: O=C(Oc1c(F)c(F)c(F)c(F)c1F)c1ccc2ccccc2n1 [fragment 25, Pentafluorophenyl quinoline-2-carboxylate]
isoTOP-ABPP reactivity ratio at lysine P55786_K712 [1]: 1.1
isoTOP-ABPP reactivity ratio at lysine P22830_K304 [2]: 1.0
isoTOP-ABPP reactivity ratio at lysine P61978_K405 [3]: 1.3
isoTOP-ABPP reactivity ratio at lysine Q8N163_K97 [4]: 0.7
isoTOP-ABPP reactivity ratio at lysine Q8N163_K112 [4]: 1.1
isoTOP-ABPP reactivity ratio at lysine Q14789_K103 [5]: 1.0
isoTOP-ABPP reactivity ratio at lysine Q6NUQ1_K771 [6]: 1.4
isoTOP-ABPP reactivity ratio at lysine Q13617_K489 (CUL2 Cullin-2): 1.1

Compound: O=C(CC12CC3CC(CC(C3)C1)C2)Oc1ccc([N+](=O)[O-])cc1[N+](=O)[O-] [fragment 38, 2,4-Dinitrophenyl 2-(adamantan-1-yl)acetate]
isoTOP-ABPP ratio (R) at liganded lysine P55786_K712 [1]: 1.0
isoTOP-ABPP ratio (R) at liganded lysine P22830_K304 ([2]; sol, 231): 1.8
isoTOP-ABPP ratio (R) at liganded lysine P61978_K405 [3]: 20.0
isoTOP-ABPP ratio (R) at liganded lysine Q14789_K103 [5]: 0.9
isoTOP-ABPP ratio (R) at liganded lysine Q6NUQ1_K771 [6]: 1.2
isoTOP-ABPP ratio (R) at liganded lysine Q13617_K489 (CUL2 Cullin-2): 1.4

Compound: CC(C)(C)OC(=O)NCCCC(=O)Oc1ccc([N+](=O)[O-])cc1[N+](=O)[O-] [fragment 41, 2,4-Dinitrophenyl 4-((tert-butoxycarbonyl)amino)butanoate]
isoTOP-ABPP ratio (R) at liganded lysine P55786_K712 [1]: 1.5
isoTOP-ABPP ratio (R) at liganded lysine P61978_K405 [3]: 1.0
isoTOP-ABPP ratio (R) at liganded lysine Q8N163_K97 ([4]; sol, 231): 1.0
isoTOP-ABPP ratio (R) at liganded lysine Q8N163_K112 ([4]; sol, 231): 1.3
isoTOP-ABPP ratio (R) at liganded lysine Q14789_K103 [5]: 1.1
isoTOP-ABPP ratio (R) at liganded lysine Q6NUQ1_K771 [6]: 0.8
isoTOP-ABPP ratio (R) at liganded lysine Q13617_K489 (CUL2 Cullin-2): 1.0

The next lines start with the values.

R value (DMSO/fragment) for probe 1 labeling [1]: 1.0
R value (DMSO/fragment) for probe 1 labeling [2]: 1.8
R value (DMSO/fragment) for probe 1 labeling [3]: 1.3
R value (DMSO/fragment) for probe 1 labeling ([4]; Q8N163_K97): 0.9
R value (DMSO/fragment) for probe 1 labeling ([4]; Q8N163_K112): 1.2
R value (DMSO/fragment) for probe 1 labeling [5]: 0.9
R value (DMSO/fragment) for probe 1 labeling [6]: 1.2
R value (DMSO/fragment) for probe 1 labeling (CUL2 Cullin-2): 0.8
Compound: O=C(CCc1cn(-c2ccccc2)nc1-c1ccccc1)Oc1c(F)c(F)c(F)c(F)c1F [fragment 19, Pentafluorophenyl 3-(1,3-diphenyl-1H-pyrazol-4-yl)propanoate]

isoTOP-ABPP reactivity ratio at lysine P55786_K712 [1]: 1.2
isoTOP-ABPP reactivity ratio at lysine P22830_K304 [2]: 1.7
isoTOP-ABPP reactivity ratio at lysine P61978_K405 [3]: 0.9
isoTOP-ABPP reactivity ratio at lysine Q8N163_K97 [4]: 0.9
isoTOP-ABPP reactivity ratio at lysine Q8N163_K112 [4]: 1.1
isoTOP-ABPP reactivity ratio at lysine Q14789_K103 [5]: 1.1
isoTOP-ABPP reactivity ratio at lysine Q6NUQ1_K771 [6]: 0.9
isoTOP-ABPP reactivity ratio at lysine Q13617_K489 (CUL2 Cullin-2): 0.9
Compound: O=C(CCc1coc2cc(F)ccc2c1=O)Oc1c(F)c(F)c(F)c(F)c1F [fragment 26, Pentafluorophenyl 3-(7-fluoro-4-oxo-4H-chromen-3-yl)propanoate]
